# Assay results as given in patent publication US5932545A, “Antiangiogenic drug to treat cancer, arthritis and retinopathy” (Abbott Laboratories, priority 1998, dated 1999).
# Square brackets hold non-standard residues; d marks the D form. Ends that are not written are not given here. Peptide text beside a SMILES is read from it.
# Columns and labels:
# [1] = system: cultured endothelial cells; settings: background, Tolsma et al. 1993; cited from earlier work
# [2] = system: rat cornea neovascularization; settings: background, Tolsma et al. 1993; cited from earlier work
# [3] = system: bovine capillary (adrenal) endothelial cells (BCE); assay: endothelial cell migration assay (modified Boyden chamber); assay type: cell-based; settings: 4 hours at 37° C., read-out: IC50, effect on endothelial cell migration
# Procedure: The effect of the peptides of the invention on endothelial cell migration was determined in vitro using the endothelial cell migration assay. This assay was performed essentially as described by Polverini, P. J. et al., Methods Enzymol, 198: 440-450 (1991). Briefly, bovine capillary (adrenal) endothelial cells (BCE, supplied by Judah Folkman, Harvard University Medical School) were starved overnight in DMEM containing 0.1% bovine serum albumin (BSA). Cells were then harvested with trypsin and resuspended in DMEM with 0.1% BSA at a concentration of 1.5×10^6cells/mL. Cells were added to the bottom of a 48-well modified Boyden chamber (Nucleopore Corporation, Cabin John, Md.). The chamber was assembled and inverted, and cells were allowed to attach for 2 hours at 37° C. to polycarbonate chemotaxis membranes (5 μm pore size) that had been soaked in 0.1 % gelatin overnight and dried. The chamber was then reinverted and test compounds were added to the wells of the upper chamber (to a total volume of 50 μL); the apparatus was then incubated for 4 hours at 37° C. Membranes were recovered, fixed and stained (DiffQuick, Fisher Scientific, Pittsburgh, Pa.) and the number of cells that had migrated to the upper chamber per 10 high power fields were counted. Background migration to DMEM+0.1% BSA was subtracted and the data reported as the number of cells migrated per 10 high power fields (400×) or when results from multiple experiments were combined, as the percent of maximal migration compared to a simultaneous positive control.
# [4] = system: rat corneal neovascularization; assay: rat corneal neovascularization assay (hydron pellets, peptide alone or with bFGF); assay type: in vivo; settings: 7 days
# Procedure: Inhibition of angiogenesis in vivo was measured using a rat corneal neovascularization assay. Accordingly, 6% hydron pellets containing peptide alone or in combination with 0.15 μM bFGF were implanted in rat corneas 1-1.5 mm from the limbus. at 7 days, the rats were sacrificed, perfused with colloidal carbon to visualize vessels and the corneas were extracted. Vigorous vessel ingrowth was scored as a positive angiogenic response. Induction control indicates response to 0.15 μM bFGF alone.
compound,measurement,setting,value
"SPWSSASVTAGDGVITRIR [MalII, 19-mer synthetic peptide mimicking properdin-like repeat region 1 of TSP1]","ED50, inhibition of the migration of cultured endothelial cells",[1],about 1 μM
same,neovascularization in vivo in the rat cornea,[2],blocked neovascularization in vivo in the rat cornea
CC[C@@H](C)[C@@H](NC(=O)[C@@H](NC(=O)CNC(=O)[C@H](CC(=O)O)NC(=O)CNC(=O)[C@H](C)NC(=O)[C@@H](NC(=O)[C@@H](NC(=O)[C@H](CO)NC(=O)[C@H](C)NC(=O)[C@H](CO)NC(=O)[C@H](CO)NC(=O)[C@H](Cc1c[nH]c2ccccc12)NC(=O)[C@@H]1CCCN1C(=O)[C@@H](N)CO)C(C)C)[C@@H](C)O)C(C)C)C(=O)N[C@H](C(=O)N[C@@H](CCCNC(=N)N)C(=O)N[C@H](C(=O)N[C@@H](CCCNC(=N)N)C(=O)O)[C@@H](C)CC)[C@@H](C)O [Ser-Pro-Trp-Ser-Ser-Ala-Ser-Val-Thr-Ala-Gly-Asp-Gly-Val-D-Ile-Thr-Arg-Ile-Arg] (H-SPWSSASVTAGDGV[dI]TRIR-OH),IC50,[3],10 nM
CC[C@@H](C)[C@@H](NC(=O)[C@@H](NC(=O)CNC(C)=O)C(C)C)C(=O)N[C@H](C(=O)N[C@@H](CCCNC(=N)N)C(=O)N[C@H](C(=O)N[C@@H](CCCNC(=N)N)C(N)=O)[C@@H](C)CC)[C@@H](C)O [Ac-Gly-Val-D-Ile-Thr-Arg-Ile-Arg-NH2] (Ac-GV[dI]TRIR-NH2),IC50,[3],7 nM
same,"Positive Corneas/Total Implanted, Tested + bFGF",[4]; 0.1 μM peptide + 0.15 μM bFGF,1/3
same,"Positive Corneas/Total Implanted, Tested Alone",[4]; 0.1 μM peptide alone,0/3
same,"Positive Corneas/Total Implanted, Tested + bFGF",[4]; 1 μM peptide + 0.15 μM bFGF,0/2
same,"Positive Corneas/Total Implanted, Tested Alone",[4]; 1 μM peptide alone,0/1
same,"Positive Corneas/Total Implanted, Tested + bFGF",[4]; 20 μM peptide + 0.15 μM bFGF,0/2
same,"Positive Corneas/Total Implanted, Tested Alone",[4]; 20 μM peptide alone,0/4
CCNC(=O)[C@H](CCCNC(=N)N)NC(=O)[C@@H](NC(=O)[C@H](CCCNC(=N)N)NC(=O)[C@@H](NC(=O)[C@H](NC(=O)[C@@H](NC(=O)CNC(=O)[C@H](Cc1ccc(O)cc1)NC(C)=O)C(C)C)[C@H](C)CC)[C@@H](C)O)[C@@H](C)CC [Ac-Tyr-Gly-Val-D-Ile-Thr-Arg-Ile-Arg-NHCH2 CH3] (Ac-YGV[dI]TRIR-NHEt),IC50,[3],50 nM
CC[C@H](C)[C@H](NC(=O)[C@H](CCCNC(=N)N)NC(=O)[C@@H](NC(=O)[C@@H](NC(=O)[C@@H](NC(=O)CNC(=O)[C@H](CC(=O)O)NC(=O)CNC(=O)[C@H](C)NC(=O)[C@@H](NC(=O)[C@@H](NC(=O)[C@H](CO)NC(=O)[C@H](C)NC(=O)[C@@H](CO)NC(=O)[C@H](CO)NC(=O)[C@H](Cc1c[nH]c2ccccc12)NC(=O)[C@@H]1CCCN1C(=O)[C@@H](N)CO)C(C)C)[C@@H](C)O)C(C)C)[C@@H](C)CC)[C@@H](C)O)C(=O)N[C@@H](CCCNC(=N)N)C(=O)O [Ser-Pro-Trp-Ser-D-Ser-Ala-Ser-Val-Thr-Ala-Gly-Asp-Gly-Val-Ile-Thr-Arg-Ile-Arg] (H-SPWS[dS]ASVTAGDGVITRIR-OH),IC50,[3],0.9 nM
"CCNC(=O)[C@H](CCCNC(=N)N)NC(=O)[C@@H](NC(=O)[C@H](CCCNC(=N)N)NC(=O)[C@@H](NC(=O)[C@H](NC(=O)[C@@H](NC(=O)CNC(C)=O)C(C)C)[C@H](C)CC)[C@@H](C)O)[C@@H](C)CC [Ac-Gly-Val-D-Ile-Thr-Arg-Ile-Arg-NHEt, Ac-Gly-Val-D-Ile-Thr-Arg-Ile-Arg-NHCH2 CH3] (Ac-GV[dI]TRIR-NHEt)",IC50,[3],0.67 nM
CC[C@@H](C)[C@@H](NC(=O)[C@@H](NC(=O)CNC(=O)[C@H](CC(=O)O)NC(=O)CNC(=O)[C@H](C)NC(=O)[C@@H](NC(=O)[C@@H](NC(=O)[C@H](CO)NC(=O)[C@H](C)NC(=O)[C@H](CO)NC(=O)[C@@H](CO)NC(=O)[C@H](Cc1c[nH]c2ccccc12)NC(=O)[C@@H]1CCCN1C(=O)[C@@H](N)CO)C(C)C)[C@@H](C)O)C(C)C)C(=O)N[C@H](C(=O)N[C@@H](CCCNC(=N)N)C(=O)N[C@H](C(=O)N[C@@H](CCCNC(=N)N)C(=O)O)[C@@H](C)CC)[C@@H](C)O [Ser-Pro-Trp-D-Ser-Ser-Ala-Ser-Val-Thr-Ala-Gly-Asp-Gly-Val-D-Ile-Thr-Arg-Ile-Arg] (H-SPW[dS]SASVTAGDGV[dI]TRIR-OH),"Positive Corneas/Total Implanted, Tested + bFGF","[4]; peptide + 0.15 μM bFGF, peptide concentration not given",0/3
same,"Positive Corneas/Total Implanted, Tested Alone","[4]; peptide alone in hydron pellet, concentration not given",0/3
CC[C@@H](C)[C@@H](NC(=O)[C@@H](NC(=O)CNC(=O)[C@H](CC(=O)O)NC(=O)CNC(=O)[C@H](C)NC(=O)[C@@H](NC(=O)[C@@H](NC(=O)[C@H](CO)NC(=O)[C@H](C)NC(=O)[C@@H](CO)NC(=O)[C@H](CO)NC(=O)[C@H](Cc1c[nH]c2ccccc12)NC(=O)[C@@H]1CCCN1C(=O)[C@@H](N)CO)C(C)C)[C@@H](C)O)C(C)C)C(=O)N[C@H](C(=O)N[C@@H](CCCNC(=N)N)C(=O)N[C@H](C(=O)N[C@@H](CCCNC(=N)N)C(=O)O)[C@@H](C)CC)[C@@H](C)O [Ser-Pro-Trp-Ser-D-Ser-Ala-Ser-Val-Thr-Ala-Gly-Asp-Gly-Val-D-Ile-Thr-Arg-Ile-Arg] (H-SPWS[dS]ASVTAGDGV[dI]TRIR-OH),IC50,[3],0.9 nM
